Measured values taken from patent US11339110B2, “Efficient crystallization process for preparing ultrapure Treprostinil and crystal prepared therefrom” (CHIROGATE INTERNATIONAL INC., priority 2019, dated 2022).

Legend:
Assay type in all cases: physicochemical
[1] = Filterability of Treprostinil crystal (microfiltration, pressure change during filtering); conditions: 100 ml sample solution, 25±1° C., 0.22 μm hydrophilic PVDF membrane
Method: The filterability of sample solution is numerical estimated by the pressure changes inside the microfiltration assemblies during filtering. The microfiltration assemblies with 47 mm fritted glass, 0.22 μm hydrophilic PVDF filter membrane, 250 ml bottle, PANCHUM VP-900 dry pump, and an external pressure gauge were settled for tracing the pressure changes during filtration. The usage volume of sample solution for filtering was set as 100 ml and the filtering temperature was set as 25±1° C. for comparing the filterability of samples in a similar experimental condition.
Sample of crystalline Form I of anhydrous Treprostinil in ethyl acetate (containing 3% v/v water) was prepared from Example 5, and the concentration is about 0.05 g/ml. Sample of crystalline Form A of anhydrous Treprostinil in acetonitrile was prepared as disclosed by U.S. Pat. No. 9,278,903 Example 12, and the concentration is about 0.02 g/ml. […] The pressure changes of pure ethyl acetate, pure acetonitrile, crystalline Form I of anhydrous Treprostinil in ethyl acetate (containing 3% v/v water), crystalline Form A of anhydrous Treprostinil in acetonitrile, and monohydrated Treprostinil crystal in ethanol/water during filtration were measured and the results am shown in FIG. 10.

[2] = Stability of Treprostinil in ethanol (UPLC tracing of ethyl ester and dimers); conditions: 40±1° C.; for Treprostinil / Treprostinil dimer-1 (IT201d1) / Treprostinil dimer-2 (IT201d2) / Treprostinil ethyl ester (IT201e2): 1.00 g in 5 ml ethanol, UPLC
Method: (§1) Ultra Performance Liquid Chromatography (UPLC) Analysis: The UPLC spectra were collected on a Waters ACQUITY UPLC instrument. The conditions were shown as the following: The sample is diluted to 1 mg/ml by […] (v/v) acetonitrile/H2O. The column is Waters BEH C18, 1.7 μm, 2.1*150 mm. The mobile phase is 60/40 (v/v) buffer/acetonitrile from 0 to 10 min, gradient changes of buffer/acetonitrile from 60/40 to 5/95 (v/v) (curve 6) from 10 to 20 min, 5/95 (v/v) buffer/acetonitrile from 20 to 25 min, gradient changes of buffer/acetonitrile from 5/95 to 0/100 (v/v) (curve 6) from 25 to 30 min, 0/100 (v/v) buffer/acetonitrile from 30 to 35 min. Buffer solution is pH 3.0 aqueous solution adjusted by trifluoroacetic acid. The flow rate is set as 0.42 ml/min. Column temperature is set as 45° C., sample temperature is set as 25° C. Injection is 1.5 μL. Run time is 35 min. UV detector is set as 210 nm.
1.00 g Treprostinil was dissolved in 5 ml ethanol in a glass vial at room temperature to form a homogenous solution, which was stirred at 40±1° C. oil bath and periodically sampled to UPLC measurement for tracing the formation of Treprostinil ethyl ester and Treprostinil dimers.

[3] = Stability of Treprostinil stored in a glass vial at 40° C. (UPLC tracing of ethyl ester and dimers); conditions: 40±1° C.; for Treprostinil / Treprostinil dimer-1 (IT201d1) / Treprostinil dimer-2 (IT201d2): no solvent, glass vial, UPLC
Method: as §1
0.01% g Treprostinil was placed in a glass vial and stirred at 40±1° C. oil bath and periodically sampled to UPLC measurement for tracing the formation of Treprostinil ethyl ester and Treprostinil dimers.

In the case of `CCCCC[C@H](O)CC[C@@H]1[C@H]2Cc3cccc(OCC(=O)O)c3C[C@H]2C[C@H]1O` [Treprostinil], the “finish time of filtration” value ([1]; 47 mm fritted glass) is reported as “about 92 seconds”, the solution filtered ([1]; until about 180 seconds) is reported as ~80% and the Treprostinil ([2]; time 0 h) is reported as 99.88%. For the same compound, the “Treprostinil dimer-1 (IT201d1)” value ([2]; time 0 h) was 0.04%, the “Treprostinil dimer-2 (IT201d2)” value ([2]; time 0 h) was 0.06% and the “Treprostinil ethyl ester (IT201e2)” value ([2]; time 0 h) was 0.02%. For the same compound, the Treprostinil ([2]; time 2 h) was 99.50%, the “Treprostinil dimer-1 (IT201d1)” value ([2]; time 2 h) was 0.04% and the “Treprostinil dimer-2 (IT201d2)” value ([2]; time 2 h) was 0.07%. For the same compound, the “Treprostinil ethyl ester (IT201e2)” value ([2]; time 2 h) was 0.39%, the Treprostinil ([2]; time 4 h) was 99.07% and the “Treprostinil dimer-1 (IT201d1)” value ([2]; time 4 h) was 0.06%. The “Treprostinil dimer-2 (IT201d2)” value ([2]; time 4 h) was 0.06%, the “Treprostinil ethyl ester (IT201e2)” value ([2]; time 4 h) was 0.81% and the Treprostinil ([2]; time 6 h) was 98.68%. For the same compound, the “Treprostinil dimer-1 (IT201d1)” value ([2]; time 6 h) was 0.07%, the “Treprostinil dimer-2 (IT201d2)” value ([2]; time 6 h) was 0.07% and the “Treprostinil ethyl ester (IT201e2)” value ([2]; time 6 h) was 1.18%. The Treprostinil ([2]; time 8 h) was 98.15%, the “Treprostinil dimer-1 (IT201d1)” value ([2]; time 8 h) was 0.10% and the “Treprostinil dimer-2 (IT201d2)” value ([2]; time 8 h) was 0.11%. For the same compound, the “Treprostinil ethyl ester (IT201e2)” value ([2]; time 8 h) was 1.64%, the Treprostinil ([2]; time 10 h) was 97.73% and the “Treprostinil dimer-1 (IT201d1)” value ([2]; time 10 h) was 0.12%. For the same compound, the “Treprostinil dimer-2 (IT201d2)” value ([2]; time 10 h) was 0.11%, the “Treprostinil ethyl ester (IT201e2)” value ([2]; time 10 h) was 2.04% and the Treprostinil ([2]; time 12 h) was 97.41%. The “Treprostinil dimer-1 (IT201d1)” value ([2]; time 12 h) was 0.13%, the “Treprostinil dimer-2 (IT201d2)” value ([2]; time 12 h) was 0.09% and the “Treprostinil ethyl ester (IT201e2)” value ([2]; time 12 h) was 2.37%. For the same compound, the “formation rate of Treprostinil dimers” value ([2]; dissolved in ethanol) was “about 0.01 % per hour”, the “formation rate of Treprostinil ethyl ester” value ([2]; dissolved in ethanol) was “about 0.2 % per hour” and the “formation rate of Treprostinil dimers” value ([3]; Treprostinil stored without solvent) was “about 0.01 % per hour”. The Treprostinil ([3]; time 0 h) was 99.90%, the “Treprostinil dimer-1 (IT201d1)” value ([3]; time 0 h) was 0.04% and the “Treprostinil dimer-2 (IT201d2)” value ([3]; time 0 h) was 0.06%. For the same compound, the Treprostinil ([3]; time 2 h) was 99.89%, the “Treprostinil dimer-1 (IT201d1)” value ([3]; time 2 h) was 0.06% and the “Treprostinil dimer-2 (IT201d2)” value ([3]; time 2 h) was 0.05%. For the same compound, the Treprostinil ([3]; time 4 h) was 99.88%, the “Treprostinil dimer-1 (IT201d1)” value ([3]; time 4 h) was 0.06% and the “Treprostinil dimer-2 (IT201d2)” value ([3]; time 4 h) was 0.06%. The Treprostinil ([3]; time 6 h) was 99.84%, the “Treprostinil dimer-1 (IT201d1)” value ([3]; time 6 h) was 0.07% and the “Treprostinil dimer-2 (IT201d2)” value ([3]; time 6 h) was 0.08%. The Treprostinil ([3]; time 8 h) was 99.83%, the “Treprostinil dimer-1 (IT201d1)” value ([3]; time 8 h) was 0.08% and the “Treprostinil dimer-2 (IT201d2)” value ([3]; time 8 h) was 0.09%. For the same compound, the Treprostinil ([3]; time 10 h) was 99.79%, the “Treprostinil dimer-1 (IT201d1)” value ([3]; time 10 h) was 0.09% and the “Treprostinil dimer-2 (IT201d2)” value ([3]; time 10 h) was 0.12%. For the same compound, the Treprostinil ([3]; time 12 h) was 99.77%, the “Treprostinil dimer-1 (IT201d1)” value ([3]; time 12 h) was 0.10% and the “Treprostinil dimer-2 (IT201d2)” value ([3]; time 12 h) was 0.13%.
